Source: patent US11078189B2, “Pharmaceutical compounds” (REVIRAL LIMITED, priority 2017, dated 2021)

Tests used:
[1] = target: T1, RSV fusion (pCDNA3.1_A2_F in HEK 293T cells) (Human respiratory syncytial virus A, UniProt P03420); assay: RSV fusion assay; type: cell-based
T1 construct: expressed in transfected cells; host or cells: HEK 293T (ECACC 12022001)
Description: HEK 293T ((ECACC 12022001) cells were cultured in T75 culture flasks in Dulbecco's medium (DMEM) containing 10% Foetal Bovine serum (FBS), 50 units per mL Penicillin and 50 μg/mL Streptomycin and warmed to 37° C. prior to use. The cells were passaged by first washing briefly with 5 mL Phosphate buffered saline (PBS), followed by addition of 2 mL of Trypsin Ethylenediaminetetraacetic acid (EDTA) to detach the cells. Once cells had detached from the flask, 8 mL media was then added to and the cells dispersed via pipetting against the bottom of the flask.
The cells were counted and diluted to 3×10^5 cells/ml in fresh media. Two T75 flasks were each seeded with 15.6 mL diluted cells, cells were also subcultured at a ratio of between 1:2 and 1:10, to continue the stock. The flasks were then incubated for 24 h at 37° C. and 5% CO2.
The plasmid DNA (for pFR-Luc and pcDNA3. 1_Gal4/NFKB) to be transfected into the HEK 293T cells was first prepared in serum free media (Opti-MEM, Invitrogen), containing the transfection reagent FuGENE® 6 (Promega). Serum free media was placed in a 1.5 mL eppendorf tube then the FuGENE 6 was added into the media. The tube was vortexed for 1 s before being incubated at RT for 5 min. 7.79 ng of both pFR_luc and pCDNA3.1_A2_F plasmid DNA were added to tube 1 and 7.79 ng of pCDNA3.1_GAL4-NF-κB plasmid to tube 2. The tubes were vortexed for 1 second and then incubated at room temperature for 15 min. Each transfection mixture was then added into the media of one of the T75 flasks of 293T cells. Cells were cultured for 24h at 37° C., 5% CO2 in a humidified incubator.
Compounds were diluted (in a polypropylene round-bottomed 96 well plate) 1:3 in a twelve point dilution curve to give top [final] of either 25 μM, 3 μM, 1 μM or 500 nM. A control compound was included in every assay at a top concentration of 3 μM. Transfected cells were counted and diluted to 4×10^5 cells/mL in fresh media. 50 μL of transfection population 1 were added to all wells of the 96 well flat bottom white opaque assay plates. 100 μL diluted compound (2 rows per compound), control compound (one row) and controls (DMSO (0% inhibition, four wells), 3 μM positive control (100% inhibition, four wells) and media (transfection population 1 only, four wells) were added to the appropriate wells. 50 μL of the diluted (4×10^5 cells/mL) population 2 cells when then added to all wells, except the four wells of transfection population 1 only where an extra 50 μL of this cells population was added.
The plates were then incubated for 24 h at 37° C. and 5% CO2. After this time, 100 μL was removed from all wells and 60 μL of ONE-Glo™ (Promega) reagent, pre-equilibrated to room temperature, was added. Plates were then incubated for 3 min at room temperature before luminescence was read, using the ONE-Glo protocol, on the GloMax Explorer System (Promega) multimode reader. Analysis was carried out in Dotmatics software. All raw data were background subtracted (subtraction of mean 3 μM positive control value), before IC50 calculation.

MDR1 = assay: in vitro; type: in vitro ADME; conditions: dog, MDCK-MDR1
Description: MDR1-MDCK cells obtained from the NIH (Rockville, Md., USA) are used between passage numbers 6-30. Cells are seeded onto Millipore Multiscreen Transwell plates at 3.4×10^5 cells/cm^2. The cells are cultured in DMEM and media is changed on day 3. On day 4 the permeability study is performed. Cell culture and assay incubations are carried out at 37° C. in an atmosphere of 5% CO2 with a relative humidity of 95%. On the day of the assay, the monolayers are prepared by rinsing both basolateral and apical surfaces twice with Hanks Balanced Salt Solution (HBSS) at the desired pH warmed to 37° C. Cells are then incubated with HBSS at the desired pH in both apical and basolateral compartments for 40 min to stabilise physiological parameters.
The dosing solutions are prepared by diluting test compound with assay buffer to give a final test compound concentration of 10 μM (final DMSO concentration of 1% v/v). The fluorescent integrity marker lucifer yellow is also included in the dosing solution. Analytical standards are prepared from test compound DMSO dilutions and transferred to buffer, maintaining a 1% v/v DMSO concentration.
For assessment of A-B permeability, HBSS is removed from the apical compartment and replaced with test compound dosing solution. The apical compartment insert is then placed into a companion plate containing fresh buffer (containing 1% v/v DMSO). For assessment of B-A permeability, FIBSS is removed from the companion plate and replaced with test compound dosing solution. Fresh buffer (containing 1% v/v DMSO) is added to the apical compartment insert, which is then placed into the companion plate. At 60 min the apical compartment inserts and the companion plates are separated and apical and basolateral samples diluted for analysis. Test compound permeability is assessed in duplicate. Compounds of known permeability characteristics are run as controls on each assay plate.
Test and control compounds are quantified by LC-MSMIS cassette analysis using an 8-point calibration with appropriate dilution of the samples. The starting concentration (C0) is determined from the dosing solution and the experimental recovery calculated from C0 and both apical and basolateral compartment concentrations. The integrity of the monolayer throughout the experiment is checked by monitoring lucifer yellow permeation using fluorimetric analysis. Lucifer yellow permeation is high if monolayers have been damaged.

[2] = Liver microsomal stability, dog; type: in vitro ADME; conditions: pooled liver microsomes, pH 7.4; dog liver microsomes 0.5 mg/mL; 3 μM compound; read-out: Liver Microsoinal Stability t1/2, dog
Description: (§1) Pooled liver microsomes are purchased from a reputable commercial supplier and stored at −80° C. prior to use. Microsomes (final protein concentration 0.5 mg/mL), 0.1 M phosphate buffer pH 7.4 and test compound (final substrate concentration 3 μM; final DMSO concentration 0.25%) are pre-incubated at 37° C. prior to the addition of NADPH (final concentration 1 mM) to initiate the reaction. The final incubation volume is 50 uL. A control incubation is included for each compound tested where 0.1 M phosphate buffer pH 7.4 is added instead of NADPH (minus NADPH). Two control compounds are included with each species. All incubations are performed singularly for each test compound. Each compound is incubated for 0, 5, 15, 30 and 45 min. The control (minus NADPH) is incubated for 45 min only. The reactions are stopped by transferring 20 μL of incubate to 60 μL MeOH at the appropriate time points. The termination plates are centrifuged at 2,500 rpm for 20 min at 4° C. to precipitate the protein. Following protein precipitation, the sample supernatants are combined in cassettes of up to 4 compounds, internal standard is added and samples analysed by LC-MS/MS. From a plot of In peak area ratio (compound peak area/internal standard peak area) against time, the gradient of the line is determined. Subsequently, half-life and intrinsic clearance are calculated.

[3] = Liver microsomal stability, rat; type: in vitro ADME; conditions: pooled liver microsomes, pH 7.4; rat liver microsomes 0.5 mg/mL; 3 μM compound; read-out: Liver Microsoinal Stability t1/2, rat
Description: as §1

T1 sequence (P03420 26-109): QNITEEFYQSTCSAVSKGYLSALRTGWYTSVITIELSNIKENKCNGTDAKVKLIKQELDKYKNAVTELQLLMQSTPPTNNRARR
T1 sequence (P03420 137-574): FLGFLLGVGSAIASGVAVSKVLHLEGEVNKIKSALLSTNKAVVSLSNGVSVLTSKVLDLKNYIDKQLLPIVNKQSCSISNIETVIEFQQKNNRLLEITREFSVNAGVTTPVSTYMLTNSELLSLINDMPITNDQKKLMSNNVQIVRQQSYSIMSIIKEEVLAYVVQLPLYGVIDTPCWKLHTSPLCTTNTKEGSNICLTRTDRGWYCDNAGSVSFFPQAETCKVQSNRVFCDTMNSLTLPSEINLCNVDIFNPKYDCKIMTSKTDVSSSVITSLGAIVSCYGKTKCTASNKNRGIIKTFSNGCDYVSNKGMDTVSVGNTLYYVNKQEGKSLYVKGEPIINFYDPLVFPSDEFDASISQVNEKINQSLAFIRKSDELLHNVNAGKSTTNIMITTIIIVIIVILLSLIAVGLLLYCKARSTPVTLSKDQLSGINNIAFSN

With `CS(=O)(=O)N1CCC(n2c(CN3C(=O)C4(CC4)c4ccc(F)cc43)nc3cc(Cl)ccc32)CC1` [Compound 33, 1′-{[5-Chloro-1-(1-methanesulfonylpiperidin-4-yl)-1H-1,3-benzodiazol-2-yl]methyl}-6′-fluoro-1′,2′-dihydrospiro[cyclopropane-1,3′-indole]-2′-one] the IC50 [1] was 3.3 nM, the Papp A→B at 60 min, 10 μM (MDR1) was 12.4 ×10⁻⁶ cm/s and the Papp B→A at 60 min, 10 μM (MDR1) was 35.5 ×10⁻⁶ cm/s. It also gave a half-life at 3 μM [2] of 186 min and a half-life at 3 μM [3] of 14.8 min.

In the case of `CCS(=O)(=O)N1CCC(n2c(CN3C(=O)C4(CC4)c4ccc(F)cc43)nc3cc(Cl)ccc32)CC1` [Compound 35, 1′-({5-Chloro-1-[1-(ethanesulfonyl)piperidin-4-yl]-1H-1,3-benzodiazol-2-yl}methyl)-6′-fluoro-1′,2′-dihydrospiro[cyclopropane-1,3′-indole]-2′-one], the IC50 [1] is reported as 5 nM, the Papp A→B at 60 min, 10 μM (MDR1) is reported as 12.7 ×10⁻⁶ cm/s and the Papp B→A at 60 min, 10 μM (MDR1) is reported as 22.8 ×10⁻⁶ cm/s. It also gave a half-life at 3 μM [2] of 166 min and a half-life at 3 μM [3] of 5.5 min.
